Earlier results as cited in patent US20180338996A1, “COMBINATION THERAPY FOR TRAUMATIC BRAIN INJURY” (UNIVERSITY OF SOUTH FLORIDA, priority 2017, published 2018).

| SMILES | adverse effects in clinical use |
| --- | --- |
| CN(CCOc1ccc(CC2SC(=O)NC2=O)cc1)c1ccccn1 (centres unmarked) [rosiglitazone] | weight gain, fluid retention, congestive heart failure, and bone fractures |
| CCc1ccc(CCOc2ccc(CC3SC(=O)NC3=O)cc2)nc1 (centres unmarked) [PG, pioglitazone] | weight gain, fluid retention, congestive heart failure, and bone fractures |
